This note sets out measurements from ChEMBL document CHEMBL6127068, “Discovery of novel nitrofuran PROTAC-like compounds as dual inhibitors and degraders targeting STING” (Eur J Med Chem, 2024).

In series [1] the test system is Mus musculus. Kind of series: Anti-inflammatory activity against C57BL/6J mouse assessed as inhibition of cisplatin-induced hepatic impairment by measuring restoration of ALT activity at 25 to 50 mg/kg. Type of series: functional, organism-based. The following applies: dose 25-50 mg/kg.
For a further series, the system named is HUVEC. Kind of series: Cytotoxicity against HUVEC assessed as effect on cell viability at <10 uM incubated for 48 hrs by MTT assay. It is filed as toxicity, cell-based. To be noted: human.
In series [2] the target is T1, Protein cereblon/Stimulator of interferon genes protein (Mus musculus) (UniProt Q3TBT3+Q8C7D2). Kind of series: In vivo inhibition of STING signaling pathway in C57BL/6J mouse assessed as inhibition of cisplatin-induced IL-1 beta mRNA expression in kidney at 25 to 50 mg/kg by qPCR analysis. Type of series: functional, organism-based. To be noted: dose 25-50 mg/kg.

Series [3] has as its system Mus musculus. In words: Anti-inflammatory activity against cisplatin-induced acute kidney injury C57BL/6J mouse model assessed as decrease in plasma uric acid level at 25 to 50 mg/kg. Type of series: functional, organism-based. The following applies: dose 25-50 mg/kg.
Series [4] deals with T2, Stimulator of interferon genes protein (Mus musculus) (UniProt Q3TBT3).
T2 sequence (whole entry): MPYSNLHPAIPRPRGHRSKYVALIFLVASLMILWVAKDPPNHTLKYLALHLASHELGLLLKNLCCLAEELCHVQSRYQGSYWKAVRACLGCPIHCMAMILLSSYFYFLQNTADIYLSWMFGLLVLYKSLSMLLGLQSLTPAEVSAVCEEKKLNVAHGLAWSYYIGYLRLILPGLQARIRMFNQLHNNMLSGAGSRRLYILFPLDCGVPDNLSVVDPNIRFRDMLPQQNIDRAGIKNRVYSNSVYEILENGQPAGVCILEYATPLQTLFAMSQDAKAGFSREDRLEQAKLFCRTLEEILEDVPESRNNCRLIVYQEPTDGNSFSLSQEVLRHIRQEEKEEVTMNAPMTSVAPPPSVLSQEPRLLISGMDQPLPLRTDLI
In words: Inhibition of STING in mouse RAW264.7 cells assessed as reduction in DMXAA-induced IFN-beta mRNA expression at 5 to 20 uM pretreated for 1 hr followed by stimulation with DMXAA for 24 hrs by qRT-CPR analysis. It is filed as cell-based. The following applies: dose 5-20 µM, time 25.0 hrs.

Series [5] deals with T1, Protein cereblon/Stimulator of interferon genes protein (Mus musculus). Kind of series: In vivo inhibition of STING signaling pathway in C57BL/6J mouse assessed as inhibition of cisplatin-induced IL-6 mRNA expression in kidney at 25 to 50 mg/kg by qPCR analysis. It is filed as functional, organism-based. The following applies: dose 25-50 mg/kg.
The next series has as its system HEK-293T. Kind of series: Cytotoxicity against HEK293T cells assessed as effect on cell viability at <10 uM incubated for 48 hrs by MTT assay. Type of series: toxicity, cell-based. The following applies: human.
Series [6] deals with Mus musculus. In words: Anti-inflammatory activity against cisplatin-induced acute kidney injury C57BL/6J mouse model assessed as decrease in plasma creatinine level at 25 to 50 mg/kg. It is filed as functional, organism-based. The following applies: dose 25-50 mg/kg.
In series [7] the test system is Mus musculus. Kind of series: Anti-inflammatory activity against cisplatin-induced acute kidney injury C57BL/6J mouse model assessed as animal survival rate at 25 to 50 mg/kg measured at 72 hrs post-cisplatin administration (reference value: 66.7%). It is filed as functional. To be noted: dose 25-50 mg/kg.
Series [8] deals with T1, Protein cereblon/Stimulator of interferon genes protein (Mus musculus). In words: In vivo inhibition of STING signaling pathway in C57BL/6J mouse assessed as inhibition of cisplatin-induced TNF-alpha mRNA expression in kidney at 25 to 50 mg/kg by qPCR analysis. It is filed as functional, organism-based. The following applies: dose 25-50 mg/kg.
In series [9] the target is T3, Protein cereblon/Stimulator of interferon genes protein (Homo sapiens, UniProt Q96SW2+Q86WV6). Kind of series: PROTAC activity at CRBN/STING in human THP-1 cells assessed as inhibition of cGAMP-induced IRF3 phosphorylation incubated for 24 hrs followed by stimulation with cGAMP for 24 hrs by western blot analysis. It is filed as cell-based. To be noted: dose 0.3-20 µM, time 48.0 hrs.

Series [10] addresses T3, Protein cereblon/Stimulator of interferon genes protein. In words: PROTAC activity at CRBN/STING in human THP-1 cells assessed as induction of STING degradation at 10 uM incubated for 24 hrs by western blot analysis. It is filed as cell-based.
The target of series [11] is T1, Protein cereblon/Stimulator of interferon genes protein (Mus musculus). Kind of series: In vivo inhibition of STING signaling pathway in C57BL/6J mouse assessed as inhibition of cisplatin-induced ISG56 mRNA expression in kidney at 25 to 50 mg/kg by qPCR analysis. Type of series: functional, organism-based. To be noted: dose 25-50 mg/kg.
Series [12] can be described thus: Stability of the compound in human plasma assessed as parent compound remaining at 400 ug/ml measured after 24 hrs by HPLC analysis. Type of series: ADME, cell-free. The following applies: at 400 µg/mL, read-out: Stability.
Series [13] has as its target T2, Stimulator of interferon genes protein (Mus musculus). Kind of series: Inhibition of STING in mouse RAW264.7 cells assessed as reduction in SR717-induced TBK1 phosphorylation at 0.3 to 20 uM pretreated for 1 hr followed by stimulation with SR717 for 24 hrs by western blot analysis. Type of series: cell-based. To be noted: dose 0.3-20 µM, time 25.0 hrs.
For series [14] the target is unchanged. Kind of series: Inhibition of STING in mouse RAW264.7 cells assessed as reduction in DMXAA-induced IL-6 mRNA expression at 5 to 20 uM pretreated for 1 hr followed by stimulation with DMXAA for 24 hrs by qRT-CPR analysis. Type of series: cell-based. To be noted: dose 5-20 µM, time 25.0 hrs.
The test system of series [15] is Mus musculus. In words: Anti-inflammatory activity against C57BL/6J mouse assessed as inhibition of cisplatin-induced hepatic impairment by measuring restoration of gamma-GT activity at 25 to 50 mg/kg. It is filed as functional, organism-based. To be noted: dose 25-50 mg/kg.
The target of series [16] is T3, Protein cereblon/Stimulator of interferon genes protein. In words: PROTAC activity at CRBN/STING in human THP-1 cells assessed as induction of STING degradation at 3 uM pretreated with proteasome inhibitor, MG132 for 1 hr followed by incubation with compound for 24 hrs by western blot analysis. It is filed as cell-based.
Series [17] in a line: Toxicity against cisplatin-induced acute kidney injury C57BL/6J mouse model assessed as decrease in body weight at 25 to 50 mg/kg. It is filed as organism-based. To be noted: in vivo, dose 25-50 mg/kg.
A further series deals with THP-1. Kind of series: Effect on STING mRNA expression in human THP-1 cells at 10 uM incubated for 12 to 48 hrs by qRT-PCR analysis. It is filed as functional, cell-based. The following applies: time 12-48 hrs.
Series [18] deals with T3, Protein cereblon/Stimulator of interferon genes protein. Kind of series: PROTAC activity at CRBN/STING in human THP-1 cells assessed as inhibition of cGAMP-induced TBK1 phosphorylation incubated for 24 hrs followed by stimulation with cGAMP for 24 hrs by western blot analysis. Type of series: cell-based. To be noted: dose 0.3-20 µM, time 48.0 hrs.
Series [19] deals with Protein cereblon/Signal transducer and activator of transcription 3 (Homo sapiens) (UniProt P40763+Q96SW2). Kind of series: PROTAC activity at CRBN/STAT3 in human THP-1 cells assessed as induction of STAT3 degradation at 2.5 to 40 uM incubated for 24 hrs by western blot analysis. The following applies: dose 2.5-40 µM. Type of series: cell-based.

Calls of active or inactive are those of the source. No cut-off for these calls is given here.

T1 sequence (Q8C7D2 whole entry, looked up, one chain of several): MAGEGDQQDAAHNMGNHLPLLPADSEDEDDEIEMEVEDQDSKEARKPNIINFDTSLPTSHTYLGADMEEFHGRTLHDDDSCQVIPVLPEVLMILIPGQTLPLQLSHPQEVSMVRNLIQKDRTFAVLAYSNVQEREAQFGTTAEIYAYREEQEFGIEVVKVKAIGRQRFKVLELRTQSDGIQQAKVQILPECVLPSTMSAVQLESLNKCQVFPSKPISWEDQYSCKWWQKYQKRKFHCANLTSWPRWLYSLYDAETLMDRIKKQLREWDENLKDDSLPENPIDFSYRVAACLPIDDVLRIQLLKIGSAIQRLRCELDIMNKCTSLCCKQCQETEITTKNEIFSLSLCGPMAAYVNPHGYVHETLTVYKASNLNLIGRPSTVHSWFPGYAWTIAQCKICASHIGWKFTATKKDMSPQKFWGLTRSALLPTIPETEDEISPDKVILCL
T3 sequence (Q86WV6 whole entry, looked up): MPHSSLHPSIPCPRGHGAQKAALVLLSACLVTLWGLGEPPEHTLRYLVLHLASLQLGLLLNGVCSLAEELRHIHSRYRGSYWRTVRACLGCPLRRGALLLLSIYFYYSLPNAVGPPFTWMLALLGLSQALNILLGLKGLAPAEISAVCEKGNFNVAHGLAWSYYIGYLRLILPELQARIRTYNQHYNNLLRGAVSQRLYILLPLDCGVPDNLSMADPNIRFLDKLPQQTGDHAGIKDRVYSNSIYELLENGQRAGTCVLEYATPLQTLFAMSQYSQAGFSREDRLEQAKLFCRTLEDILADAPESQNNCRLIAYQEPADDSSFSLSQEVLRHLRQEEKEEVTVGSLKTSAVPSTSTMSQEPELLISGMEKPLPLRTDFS
T3 sequence (Q96SW2 whole entry, looked up): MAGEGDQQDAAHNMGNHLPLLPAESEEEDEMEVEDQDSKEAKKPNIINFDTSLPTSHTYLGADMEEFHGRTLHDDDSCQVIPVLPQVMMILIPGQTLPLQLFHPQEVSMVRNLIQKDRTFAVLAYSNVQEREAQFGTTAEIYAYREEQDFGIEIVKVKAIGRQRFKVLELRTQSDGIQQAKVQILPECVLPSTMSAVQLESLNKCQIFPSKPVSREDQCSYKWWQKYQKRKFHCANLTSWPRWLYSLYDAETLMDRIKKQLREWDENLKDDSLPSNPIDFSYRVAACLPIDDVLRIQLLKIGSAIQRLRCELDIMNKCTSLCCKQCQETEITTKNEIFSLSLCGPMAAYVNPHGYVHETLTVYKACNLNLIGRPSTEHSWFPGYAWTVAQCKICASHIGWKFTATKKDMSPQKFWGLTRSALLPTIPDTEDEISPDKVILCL
Protein cereblon/Signal transducer and activator of transcription 3 (Homo sapiens), sequence (P40763 2-770 limits assumed): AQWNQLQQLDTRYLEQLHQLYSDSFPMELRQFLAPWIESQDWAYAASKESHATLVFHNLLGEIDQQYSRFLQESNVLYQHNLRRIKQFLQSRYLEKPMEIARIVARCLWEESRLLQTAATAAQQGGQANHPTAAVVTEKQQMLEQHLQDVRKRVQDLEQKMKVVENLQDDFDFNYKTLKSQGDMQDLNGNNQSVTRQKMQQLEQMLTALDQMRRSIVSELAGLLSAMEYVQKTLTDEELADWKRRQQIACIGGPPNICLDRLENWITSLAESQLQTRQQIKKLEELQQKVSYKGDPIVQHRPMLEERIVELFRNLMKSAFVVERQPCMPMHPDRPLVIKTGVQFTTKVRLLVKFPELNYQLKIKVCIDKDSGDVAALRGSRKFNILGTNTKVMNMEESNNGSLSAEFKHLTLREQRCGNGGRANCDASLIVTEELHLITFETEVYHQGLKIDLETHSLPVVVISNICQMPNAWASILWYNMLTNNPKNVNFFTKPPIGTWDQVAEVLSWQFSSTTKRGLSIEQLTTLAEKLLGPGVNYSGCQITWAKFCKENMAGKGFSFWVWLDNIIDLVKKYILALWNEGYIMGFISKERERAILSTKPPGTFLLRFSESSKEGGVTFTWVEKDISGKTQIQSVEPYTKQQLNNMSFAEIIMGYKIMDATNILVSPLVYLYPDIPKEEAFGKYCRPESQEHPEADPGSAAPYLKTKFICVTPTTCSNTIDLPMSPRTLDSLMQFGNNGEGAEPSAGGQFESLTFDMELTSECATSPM
Protein cereblon/Signal transducer and activator of transcription 3 (Homo sapiens), sequence (Q96SW2 whole entry partner): as the sequence (Q96SW2 whole entry, looked up) above

In the case of `O=C1CCC(N2C(=O)c3cccc(OCc4cn(CCCCCC(=O)OCCc5ccc(NC(=O)c6ccc([N+](=O)[O-])o6)cc5)nn4)c3C2=O)C(=O)N1` (configuration not stated), the outcome (with Mus musculus [1]; in the series on Mus musculus [3]; in the series with Mus musculus [6]; with Mus musculus [15]; in [16]) was Active. Also, the Activity result was “Non-Toxic” with HUVEC; “Non-Toxic” in the series with HEK-293T; “Dose-Dependent Effect” in [9]; 82% in [10]; “Toxic” in series [17]; “Dose-Dependent Effect” in series [18]. The inhibition result in series [2], in [5], in series [8] and in series [11] was “Active” throughout. The inhibition entry in [4], in series [13] and in series [14] was “Dose-Dependent Effect” each time. Moreover, the Survival in the series on Mus musculus [7] was found to be 100%. Further, the remaining at 24 h, 400 ug/ml in [12] is roughly 66%. Also, the result (in the series on THP-1; in series [19]) was inactive.
